This note sets out measurements from US20100240746A1, “STEREOISOMERS OF TRICYCLODECAN-9-YL-XANTHOGENATE” (LUMAVITA AG, priority 2007, published 2010).

The subject of assay [1] is HPV-31 specific DNA in HPV-31-infected CIN612 9E keratinocytes. The assay can be described thus: Short-term study, inhibition of HPV-31 specific DNA (Southern Blot). The format is cell-based, human papilloma virus. The settings on record: Human papillomavirus, Keratinocyte; at 32 μg/mL, 72 hrs. Here is the method: The inhibitory activities of optically active (−)-enantiomer 1A against human papilloma virus were evaluated using HPV-31-infected CIN612 9E keratinocytes (Meyers et al., Science 1992, 257, 971-973).
Effect on HPV-31 specific DNA and RNA. HPV-31 infected cells (3×10^6) were dispensed into 14.5 cm dishes containing fresh E culture medium and 1×10^6 mitomycin C-treated J2 3T3 fibroblast feeders. After 6 hrs, fresh medium containing 0.85 g/L NaHCO3 and a test compound at a series of concentrations (0, 0.5, 1, 2, 4, 8, 16, and 32 μg/mL) were added. All samples were tested in duplicates at each concentration. After incubation at 37° C. for 72 hrs, the feeder cells were removed with 4 mM EDTA, and DNA and RNA was then isolated. The isolated DNA and RNA were analyzed in Southern and Northern Blot gels for HPV-31 specific sequences. Human A431 epithelial cancer cells were used as HPV-uninfected negative control. X-ray films were scanned and optical densities of HPV-31 specific DNA and major mRNA species were integrated.
Dose response curves were established by plotting integrated values against the concentrations of the test compound.

The test system of assay [2] is A431 cells (epithelial cancer cells). The assay can be described thus: Long-term study, growth of HPV-uninfected control A431 cells over 9 passages. The format is cell-based, human. Here is the method: (§1) HPV-31 infected cells (3×10^6) were dispensed into 14.5 cm dishes containing fresh E medium and 1×10^6 cells of mitomycin C-treated 3T3 fibroblast feeders. The dishes were incubated in a CO2 incubator under 5% CO2 at 37° C. in 100% humidity. Human A431 epithelial cancer cells were used as HPV-uninfected negative controls. After 6 hr incubation, the cell culture medium was removed and fresh E medium containing 0.85 g/L NaHCO3 and a test compound at concentrations of 10 and 3.3 μg/mL, or control (interferon γ at 200 IU/mL) were added. For each concentration, 4 dishes were prepared. The dishes were incubated at 37° C. in a CO2 incubator. The culture medium was replaced to new E medium containing each concentration of the test compound or control in every 72 hrs. After seven days, or when untreated cells became confluent, one dish of each group was harvested for DNA/RNA extraction, followed by Southern/Northern Blot analysis; and one dish was trypsinized, cell number were determined and cells were seeded in three new dishes, treated and cultured as described above. This procedure was repeated for 9 passages. During these passages, morphology of cells and cell density were monitored.
Effect on cell proliferation. Cell numbers in the dishes harvested were determined in a Neubauer hematocytometer. The multiplication factor was determined at every step of passage. The cell number of each culture at the end of the passage was divided by the number of seeded cells at the start of each passage. The end point was reached when keratinocytes treated with a test compound stopped growing. Stop of cell growth was defined as a multiplication factor of no greater than 1.

The test system of assay [3] is CIN 612 9E cells. Nature of the assay: Long-term study, cell morphology. It is filed as cell-based, human papilloma virus. The settings on record: 10 μg/mL, after five passages. How it is done: as §1
For assay [4], the system named is HPV-31 specific DNA in HPV-31-infected CIN612 9E keratinocytes. Nature of the assay: Long-term study, HPV-31 specific DNA (Southern Blot). It is filed as cell-based, human papilloma virus. Here is the method: as §1
(§2) Effect on HPV-31 specific DNA and RNA: DNA and RNA were analyzed in Southern and Northern Blot gels for HPV-31 specific sequences. X-ray films were scanned and optical densities of HPV-31 specific DNA and major mRNA species were integrated. Time curves were established by plotting integrated values against number of passages for each treatment dose. The T50 (time required to reduce the level to 50% of control) was determined from the time curves from crossing points of time curves with a line parallel to the x-axis corresponding to 50% of integrals of untreated control sample.

The test system of assay [5] is HPV-31 specific RNA in HPV-31-infected CIN612 9E keratinocytes. The assay can be described thus: Long-term study, HPV-31 specific RNA (Northern Blot). The format is cell-based, human papilloma virus. How it is done: as §1, §2
Assay [6] deals with Herpes simplex virus type-2 (HSV-2). Nature of the assay: Inhibition of HSV-2 (plaque assay; Calu-6 infected, RITA cells for plaques). It is filed as cell-based. Here is the method:
Calu-6 cells and RITA cells were grown in DMEM cell culture medium containing 10% fetal calf serum in CO2 incubator under 5% CO2 at 37° C. with 100% humidity.
For HSV-2 inhibition, Calu-6 cells were seeded in 96 well plates at a density of 3×10^6 cells per plate in the DMEM cell culture medium. The plates were incubated at 37° C. in the presence of 5% CO2 for 24 hr. The DMEM cell culture medium in the plates was removed and the cells were infected with Herpes simplex virus type-2 at 50 plaque forming units per well. After incubation at 37° C. for 60 min, test compounds in DMEM cell culture medium at a series of concentrations were added. The plates were incubated at 37° C. in the presence of 5% CO2 for 48 hr. The plates were frozen at −20° C. prior to further analysis. After thawing at room temperature, supernatants containing infectious virus particles were prepared by centrifuging the supernatant from each well at 18,000 g at 4° C. for 5 min. The supernatant was further diluted before assay.
RITA cells were seeded in 24 well Linbra plates at a density of 4×10^6 cells per plate in 2 mL of DMEM cell culture medium. The plates were incubated at 37° C. in the presence of 5% CO2 for 24 hr. After the removal of the cell culture medium, 0.1 mL of the diluted supernatants was added and the plates were incubated at 37 C for 1 hr. DMEM cell medium containing 10% fetal calf serum and 0.5% methyl cellulose was added and the plates were incubated at 37 for 48 hr. The plates were then washed with PBS, fixed with 3% formaldehyde solution containing 0.9% NaCl for 1 min, washed by water for 10 sec, and dried overnight. For detection, the plates were then stained with crystal violet solution for 5 min at room temperature, washed 5 times with water, and dried at room temperature overnight. The number of plaques was determined macroscopically. The number of plaques per well was then multiplied with the dilution factor. Dose response curves were obtained by plotting the number of plaques/0.1 mL against compound concentration. The therapeutic index was also calculated for each compound by dividing LD50 with IC50.

[7] abbreviates: 10 μg/mL, listed as (−)-enantiomer 1A.

The structures appear in SMILES notation. In brackets after ≈: the same amount, converted by molar mass. Entries after “also recorded” stand apart in the source; their conditions may differ. Where two headings read alike, the source gives them in different places.

In general, IC50 refers to the midpoint of a concentration-inhibition curve. A higher IC50 goes with a need for much substance. In assay [1], `S=C(S)OC1CC2CC1C1CCCC21` (single isomer, unassigned; (-)) [(−)-Enantiomer 1A, (−)-O-exo/C-exo-tricyclo[5.2.1.0^2,6]-dec-9-yl-xanthic acid] gave an inhibition at 32 µg/mL of 37.5%. Moreover, the figures for the cell growth result in assay [2] (3.3 μg/mL), in assay [2] (10 μg/mL) and in assay [2] (overall) were “slight inhibition of cell growth”, “slight inhibition of cell growth” and “only minor effects on cell growth”, respectively. Further, the morphology of cells entry in assay [3] is on record as “notable change in the morphology; also recorded: growing more organized like untransformed keratinocytes; also recorded: contact inhibited when cultures grew to confluency; also recorded: acquired a flat round shape”. The “T50 DNA” value in assay [4] (3.3 μg/mL) is 2.23 passages; in assay [4] (setting [7]), below 1 passages; in assay [4] (10 μg/mL, listed as Cmpd 1A) it was below 1 passages. In addition, in assay [4] (3.3 μg/mL or 10 μg/mL), the “HPV-31 specific DNA content” value is “continuous reductions”. Further, the activity at 10 µg/mL in assay [4] (Human papillomavirus, Keratinocyte, 10 μg/mL, after 6 passages, read-out: number of viral genomes per cell, reduced to) was below 5%; in assay [4] (Human papillomavirus, Keratinocyte, 10 μg/mL, after 9 passages, read-out: viral DNA remaining), below 1%. Further, the inhibition at 10 µg/mL in assay [4] (Human papillomavirus, Keratinocyte, 10 μg/mL, after a single passage, read-out: reduction of number of viral genomes per cell) is above 50%. Further, the “T50 RNA” value in assay [5] (3.3 μg/mL) was 3.28 passages; in assay [5] (setting [7]), below 1 passages; in assay [5] (10 μg/mL, listed as Cmpd 1A), below 1 passages. In assay [5] (3.3 μg/mL or 10 μg/mL), the “HPV-31 specific RNA content” value was “continuous reductions”. In addition, the mrna remaining at 10 µg/mL in assay [5] (Homo sapiens, Keratinocyte, 10 μg/mL, after 9 passages, read-out: viral RNA remaining) was below 1%. Further, the IC50 in assay [6] (Calu-6 cells, 48 hr, 50 plaque forming units per well) is 9.08 ± 3.40 µg/mL (≈ 39.8 µM). The “Therapeutic Index” value in assay [6] (LD50 (Calu-6) divided by IC50 (HSV-2), 2880 min) was 10.4.
